Test results as given in article PMC11247629, “New Lipophilic Hydroxamates as Promising Trypanocidal Agents: Design, Synthesis, SAR, and Conformational Behavior Studies” (ACS Medicinal Chemistry Letters, 2024).

What was measured:
[1] = test system: T. brucei; settings: spiro carbocyclic 2,6-DKP-1-acetohydroxamic acids 1-5 reported previously; cited from earlier work
[2] = test system: bloodstream form T. b. brucei (strain 221); assay: Growth inhibition of cultured bloodstream-form T. brucei (resazurin); type: cell-based, Trypanosoma brucei; settings: for IC50 / IC90: cultured bloodstream-form Trypanosoma brucei, pH = 7.4, mean of triplicate ± SEM; for IC50: concentration inhibiting growth by 50%; for IC90: concentration inhibiting growth by 90%; for trypanocidal activity (in words): bloodstream-form T. brucei; for times more potent than the unsubstituted parent / times more potent than the nonmethylated counterpart / times more potent than 18: T. brucei IC50; for times more potent than the unsubstituted parent: 19 and 20 vs 18, 25 vs 24, 28 vs 27; for times more potent than the nonmethylated counterpart: 21 vs 18, 22 vs 19, 23 vs 20, 26 vs 24
Method: The new hydroxamic acid derivatives 18–28 were tested against bloodstream-form T. brucei in vitro. The results are presented in Table 1, and are expressed as IC50 and IC90 values. […]
Reference: minimized structure, heterocycle and adamantane cage).
IV. Experimental procedures for the biological evaluation of the compounds
Growth inhibition analysis was carried out using bloodstream form T. b. brucei (strain 221) cultured at
37 °C, as previously described.8 Briefly, experiments were performed using 96-well microtiter plates (200
μL volumes), with each assay initiated with 2.5 x10^4 parasites mL−1, and test compounds then added at 7
concentrations in a range that had been established in preliminary experiments to encompass both EC50
and EC90 values. Plates were incubated for 48 hours, resazurin (20 μL at 0.125 mg mL−1) was then added,
and the plates re-incubated for 16 hours. Fluorescence was determined using a BMG FLUOstar Omega plate
reader (excitation 545 nm, emission 590 nm), and the data analysed using GraphPad Prism 9.0 software.
The data are expressed as IC50/IC90 ± SD, and are the average of 3 independent replicates. […]

[3] = Cytotoxicity against cultured rat skeletal myoblast L6 cells (resazurin); type: cell-based; settings: rat, L6 rat skeletal myoblast cells, cultured rat skeletal myoblast L6 cells; mean of triplicate ± SEM
Method: (§1) To determine cytotoxicity, L6 cells (a rat myoblast line) were seeded at 1x104 mL−1 into 96-well microtiter plates (200 μL of growth medium), at a range of compound concentrations. After 6 days incubation at 37°C, 20 μL resazurin (0.125 mg mL−1) was added to each well. The plates were incubated for 6 hours, and fluorescence determined by plate reader, as above. […]

[4] = test system: L6 cells (a rat myoblast line); assay: as above; type: cell-based; settings: for Selectivity indices (SIs): ratio of the IC50 for L6 cells and T. brucei; for IC50: cultured rat skeletal myoblast L6 cells, mean of triplicate ± SEM
Method: as §1

| Compound | IC50 [1] [nM] | IC50 ([2]; Trypanosoma brucei) [nM] | IC90 ([2]; Trypanosoma brucei) [nM] | Selectivity indices (SIs) [4] | further results |
| --- | --- | --- | --- | --- | --- |
| O=C(CN1C(=O)CNC2(C1=O)C1CC3CC(C1)CC2C3)NO (stereo not drawn) [Compound 1a] | 90 |  |  |  |  |
| CN1CC(=O)N(CC(=O)NO)C(=O)C12C1CC3CC(C1)CC2C3 (stereo not drawn) [Compound 1b] | 193 |  |  |  |  |
| C[C@@H]1NC2(C(=O)N(CC(=O)NO)C1=O)C1CC3CC(C1)CC2C3 (stereo partly drawn) [Compound 1c] | 134 |  |  |  |  |
| CC(C)C[C@@H]1NC2(C(=O)N(CC(=O)NO)C1=O)C1CC3CC(C1)CC2C3 (stereo partly drawn) [Compound 1d] | 283 |  |  |  |  |
| CSCC[C@@H]1NC2(C(=O)N(CC(=O)NO)C1=O)C1CC3CC(C1)CC2C3 (stereo partly drawn) [Compound 1e] | 168 |  |  |  |  |
| O=C(CN1C(=O)[C@H](Cc2ccccc2)NC2(C1=O)C1CC3CC(C1)CC2C3)NO (stereo partly drawn) [Compound 1f] | 6.8 |  |  |  |  |
| O=C(CN1C(=O)[C@@H](Cc2ccccc2)NC2(C1=O)C1CC3CC(C1)CC2C3)NO (stereo partly drawn) [Compound 1g] | 9.1 |  |  |  |  |
| O=C(CN1C(=O)C(Cc2ccccc2)NC2(C1=O)C1CC3CC(C1)CC2C3)NO (stereo not drawn) [Compound 2] | 17 |  |  |  |  |
| O=C(CN1C(=O)C(Cc2ccc(Cl)cc2)NC2(C1=O)C1CC3CC(C1)CC2C3)NO (stereo not drawn) [Compound 3] | 32 |  |  |  |  |
| O=C(CN1C(=O)CNC2(CCCCCCC2)C1=O)NO [Compound 4a] | 300 |  |  |  |  |
| CN1CC(=O)N(CC(=O)NO)C(=O)C12CCCCCCC2 [Compound 4b] | 158 |  |  |  |  |
| C[C@@H]1NC2(CCCCCCC2)C(=O)N(CC(=O)NO)C1=O [Compound 4c] | 125 |  |  |  |  |
| CC(C)C[C@@H]1NC2(CCCCCCC2)C(=O)N(CC(=O)NO)C1=O [Compound 4d] | 72 |  |  |  |  |
| O=C(CN1C(=O)[C@H](Cc2ccccc2)NC2(CCCCCCC2)C1=O)NO [Compound 4f] | 29 |  |  |  |  |
| O=C(CN1C(=O)CNC2(CCCCCC2)C1=O)NO [Compound 5a] | 1870 |  |  |  |  |
| CN1CC(=O)N(CC(=O)NO)C(=O)C12CCCCCC2 [Compound 5b] | 285 |  |  |  |  |
| O=C(CNC(=O)CN1C(=O)CNC2(C1=O)C1CC3CC(C1)CC2C3)NO (stereo not drawn) [Compound 18] |  | 25000 ± 3000 | 36000 ± 2000 |  | fold loss in potency ([2]; T. brucei IC50 relative to compound 1a (insertion of acetamido portion)): 278 fold; trypanocidal activity (in words) [2]: marginal activity |
| CC(C)C[C@@H]1NC2(C(=O)N(CC(=O)NCC(=O)NO)C1=O)C1CC3CC(C1)CC2C3 (stereo partly drawn) [Compound 19] |  | 400 ± 90 | 980 ± 50 | 90 | times more potent than the unsubstituted parent [2]: 62 fold; IC50 at 6 days [3]: 35000 ± 4000 nM |
| Cl.O=C(CNC(=O)CN1C(=O)[C@H](Cc2ccccc2)NC2(C1=O)C1CC3CC(C1)CC2C3)NO (stereo partly drawn) [Compound 20.HCl] |  |  |  | 16 | IC50 [2]: 1530 nM; IC90 [2]: 4260 nM; IC50 [4]: 25000 nM |
| O=C(CNC(=O)CN1C(=O)[C@H](Cc2ccccc2)NC2(C1=O)C1CC3CC(C1)CC2C3)NO (stereo partly drawn) [Compound 20] |  | 1230 ± 200 | 4880 ± 740 | 24 | times more potent than the unsubstituted parent [2]: 20 fold; IC50 at 6 days [3]: 29000 ± 2000 nM |
| CN(CC(=O)NO)C(=O)CN1C(=O)CNC2(C1=O)C1CC3CC(C1)CC2C3 (stereo not drawn) [Compound 21] |  | 1330 ± 110 | 3420 ± 850 | 285 | times more potent than the nonmethylated counterpart [2]: 19 fold; IC50 at 6 days [3]: 376000 ± 7000 nM |
| CC(C)C[C@@H]1NC2(C(=O)N(CC(=O)N(C)CC(=O)NO)C1=O)C1CC3CC(C1)CC2C3 (stereo partly drawn) [Compound 22] |  | 34 ± 2 | 57 ± 5 | 940 | times more potent than 18 [2]: 735 fold; times more potent than the nonmethylated counterpart [2]: 12 fold; IC50 at 6 days [3]: 32000 ± 3000 nM |
| CN(CC(=O)NO)C(=O)CN1C(=O)[C@H](Cc2ccccc2)NC2(C1=O)C1CC3CC(C1)CC2C3 (stereo partly drawn) [Compound 23] |  | 53 ± 11 | 81 ± 3 | 470 | times more potent than 18 [2]: 472 fold; times more potent than the nonmethylated counterpart [2]: 23 fold; IC50 at 6 days [3]: 25000 ± 2000 nM |
| O=C(CNC(=O)CN1C(=O)CNC2(CCCCCCC2)C1=O)NO [Compound 24] |  | > 300000 | > 300000 |  | trypanocidal activity (in words) [2]: inactive |
| CC(C)C[C@@H]1NC2(CCCCCCC2)C(=O)N(CC(=O)NCC(=O)NO)C1=O.Cl [Compound 25.HCl] |  |  |  | 295 | IC50 [2]: 850 nM; IC90 [2]: 1710 nM; IC50 [4]: 249000 nM |
| CC(C)C[C@@H]1NC2(CCCCCCC2)C(=O)N(CC(=O)NCC(=O)NO)C1=O [Compound 25] |  | 1190 ± 280 | 1900 ± 100 | 185 | times more potent than the unsubstituted parent [2]: > 252 fold; IC50 at 6 days [3]: 223000 ± 28000 nM |
| CN(CC(=O)NO)C(=O)CN1C(=O)CNC2(CCCCCCC2)C1=O [Compound 26] |  | 38000 ± 8000 |  |  | times more potent than the nonmethylated counterpart [2]: > 8 fold |
| O=C(CNC(=O)CN1C(=O)CNC2(CCCCCC2)C1=O)NO [Compound 27] |  | > 30000 |  |  | trypanocidal activity (in words) [2]: inactive |
| CC(C)C[C@@H]1NC2(CCCCCC2)C(=O)N(CC(=O)NCC(=O)NO)C1=O [Compound 28] |  | 1650 ± 130 | 3330 ± 130 | 235 | times more potent than the unsubstituted parent [2]: > 18 fold; IC50 at 6 days [3]: 390000 ± 6000 nM |
